# Test results published in article PMC2901058 (The Journal of Experimental Medicine, 2010).
# Tested on: JurkatCD8-TK3^WT, JurkatCD8-TK3^Gln55His, and JurkatCD8-TK3^Gln55Ala cell lines
# Assay: CD69 up-regulation by peptide on C1R-HLA-B*3501 APCs, JurkatCD8-TK3 lines
# Type: cell-based, human
# Settings: dose–response, peptide presented on C1R–HLA-B*3501; not depicted
sequence,measurement,value
HPVGEADYFEY,"CD69 up-regulation, comparison between cell lines",no significant differences in CD69 up-regulation
